Assay results: a melting point compilation (Tetko et al.; mined from patent text by program, amines drawn as free bases though some values may be those of a salt)

Row | SMILES | melting point
1 | CC1(C)SC2C(NC(=O)Cc3ccccc3)C(=O)N2C1NC(=O)OCC(Cl)(Cl)Cl (stereo not given) | 223 to 224 °C
2 | Nc1ccc(CON=Cc2csc(N)n2)cc1 | 181 to 183 °C
3 | Cn1c(/C=C/C(=O)O)c(-c2ccccc2)c2ccccc2c1=O | 266 to 268 °C
4 | COc1cc2oc(=O)c(CCO)c(C)c2c(OC)c1OC | 95 to 97 °C
5 | Nc1nc2c(ncn2[C@H]2C=C[C@@H](O)CC2)c(=O)[nH]1 (racemic) | > 300 °C
6 | Nc1ccc(C(=O)OCc2ccccc2)c(F)n1 | 92 to 94 °C
7 | O=C(Nc1ccc2c(c1)C(=O)C1(CC1)O2)OCc1ccccc1 | 118 to 119 °C
8 | CCCCC(=O)Nc1cccc(NC(=O)CC(C)=O)c1 | 90 °C
9 | CNc1nn(-c2ccccc2)cc1C=O | 83 to 84 °C
10 | CCCCCCCCCCCCn1nnc(C(C(=O)Nc2c(C(C)C)cccc2C(C)C)N2CCSCC2)n1 (stereo not given) | 97 to 98 °C
11 | C=C(CCCCCCCCCCCCCCCCCC)C(=O)OC | 48 to 50 °C
12 | Nc1ccsc1C(=O)NCC1CCN(CC2COc3ccccc3O2)CC1 (stereo not given) | 144 to 146 °C
13 | O=S1(=O)O[C@H](COCc2ccccc2)CC[C@@H](COCc2ccccc2)O1 | 57 to 59 °C
14 | Cc1cccc2c1CCN(C1CN3CCC1CC3)C2=O (racemic) | > 270 °C
15 | COCCOC1(S(C)=O)C=CC=C(C(=O)c2cnoc2C2CC2)C1Br (stereo not given) | 86.2 to 87 °C
16 | N#Cc1[nH]c(Br)c(Br)c1Br | 215 to 218 °C
17 | Cc1ncccc1OCC1(c2onc(-c3ccc(O)cc3)c2-c2ccccc2)CC1 | 194 to 195 °C
18 | CSC1=NS(=O)(=O)CCCS1 | 91 °C
19 | CCCCCCCCS(=O)(=O)NC(Cc1cc2c(N)nccc2s1)C(=O)N1CCC(C)CC1 (stereo not given) | 101 to 112 °C
20 | COc1ccccc1Nc1nc(N)nc2c(OC)cccc12 | 243 to 244 °C
21 | CCCCCCCCCCCCCCCCCCOc1cc(O)cc(C(=O)OC)c1 | 93 to 94 °C
22 | CCC(C)(O/N=C(\C(=O)O)c1csc(NC(c2ccccc2)(c2ccccc2)c2ccccc2)n1)C(=O)OC(C)(C)C (stereo not given) | 163 to 164 °C
23 | O=C(CCC(=O)OC(=O)CCC(=O)OCc1ccccc1)OCc1ccccc1 | 70 to 71 °C
24 | CC1=Nc2ccccc2CC(c2ccsc2C)N1C (stereo not given) | 91 to 92 °C
25 | COc1nsc(OCCC#CI)c1C#N | 71 to 73 °C
26 | CNC(=O)Nc1nc(CC(=O)Nc2cccc(C(F)(F)F)c2)cs1 | 200 to 203 °C
27 | Nc1nnc(-c2ccccc2Nc2cccc(C(F)(F)F)c2)o1 | 185 to 187 °C
28 | CSC(=CC(=O)c1ccccc1)CC(=O)c1ccccc1 | 106 to 108 °C

Row | SMILES | melting point
29 | COc1ccc(S(=O)(=O)C2(C(=O)NO)CCN(CCCc3ccccc3)CC2)cc1 | 143 °C
30 | Clc1ccc(-c2nc(Cl)nc(Cl)c2-c2ccccc2)cc1 | 129 to 131 °C
31 | COc1ccc(C(=O)Sc2ccc(C(=O)O)cc2)cc1C(C)(C)C | 220 to 221 °C
32 | CN(CCCCOc1ccc(C=C2SC(=O)NC2=O)cc1)c1nc2ccccc2o1 | 168 °C
33 | C=C(C)C(=O)OCCCCCCOc1ccc(C(=O)Oc2ccc(/C=C/C(=O)OC)cc2OC)cc1 | 92 to 94 °C
34 | CCc1cc(-c2cccc(N)n2)c(OC)cc1OCCN(C)C | 109 °C
35 | COC(=O)CC1Sc2ccc(N)cc2CN(CCc2ccccc2)C1=O (stereo not given) | 126 to 129 °C
36 | CCc1nc2c(N)nc3ccccc3c2n1CCCS(=O)(=O)NC | 225 to 228 °C
37 | CNN(NC)C(=O)Nc1cccc2c1C(=O)c1c-2n[nH]c1-c1ccc(OC)s1 | 280 °C
38 | CNc1cncc(C(F)(F)F)c1 | 69 to 70 °C
39 | Nc1cccc(CCc2n[nH]c3c2c(=O)n(-c2ccccc2)c2ncccc32)c1 | 229 to 231 °C
40 | CC1(C)Oc2ccc(C#N)cc2[C@@H](NC(=O)c2ccc(C(F)(F)F)cc2)[C@@H]1O (relative stereo) | 225 °C
41 | CCOC(=O)C(C=O)c1ccc(Cl)cc1 (stereo not given) | 50 °C
42 | CC(=O)c1cc(Cn2ccnc2)ccc1O | 106 to 107 °C
43 | CCCCCCCCCCCCCCCCS(=O)(=O)N[C@H]1CCCNC(=O)C1 | 100 to 101 °C
44 | CC(C)Cn1c(CCCCNC(=O)OC(C)(C)C)nc2c(N)nc3ccccc3c21 | 165 to 167 °C
45 | O=C(NCc1ccccn1)c1cc(OCC(F)(F)F)ccc1O | 143 to 145 °C
46 | CC(C)N1c2ccccc2N(C(C)C)c2ccccc21 | 80 to 81 °C
47 | COc1ccc(-c2cc3cc(OC)cc(C(C)(C)C#N)c3o2)cc1 | 146 to 148 °C
48 | CSc1nnc(-c2ccc(F)cc2)c(-c2ccc(N(C)C)cc2)n1 | 144 to 146 °C
49 | OCc1ccc2cccc(Br)c2c1 | 110 to 111 °C
50 | CCC(=CC(CNC(=O)c1ccc(N)nc1)=NO)C(C)[N+](=O)[O-] (stereo not given) | 157 to 161 °C
51 | Clc1ccc(N2CCN(Cc3ccc4[nH]ccc4c3)CC2)cc1 | 175 to 176 °C
52 | CN[C@@H](CC(C)C)C(=O)N[C@@H](Cc1ccccc1)C(N)=O | 136 to 138 °C
53 | OCc1cccc2c1ccn2-c1ccnc(N[C@H]2CC[C@H](O)CC2)n1 | 212 to 213 °C
54 | CCN(CC)C(=O)c1c(OC)cccc1-c1ccccc1 | 79 to 80 °C
55 | COc1ccc(C2COC(=O)C2CSC2CCCCC2)cc1 (stereo not given) | 50 to 51 °C

More lines, now with the values ahead:

Row | melting point | SMILES
56 | 191 to 194 °C | CCS(=O)(=O)Nc1cc(-c2ncnc(C(F)(F)F)c2Cl)c(F)cc1C#N
57 | 97 to 99 °C | CCC1=C(c2cccc(C(F)(F)F)c2)n2ncc(C#N)c2N(C(=O)CN2CCN(Cc3ccccc3)CC2)C1
58 | 228 to 230 °C | Cc1cccc2c1S(=O)(=O)NC(C1CCCCC1)N2 (stereo not given)
59 | 156 to 157 °C | CCc1c(Sc2cc(C)cc(C)c2)n(CC2=CC(CO)C(CO)C2)c(=O)[nH]c1=O (stereo not given)
60 | 225 to 227 °C | COc1cc(Oc2ccc(S(C)(=O)=O)nc2)cc2cc(C3=NCC(CC(N)=O)S3)[nH]c12 (stereo not given)
61 | 178 to 180 °C | O=C(Nc1cscn1)Nc1cccc2c1C1CCCCN1C2=O (stereo not given)
62 | 180 to 183 °C | Cc1cc2cc(CN3CCCC3)cnc2cc1NC(=O)c1ccc(-c2ccccc2)cc1F
63 | 127 to 129 °C | CCOC(=O)Cn1nnc2cc(-c3ncc(C(F)(F)F)cc3Cl)ccc21
64 | 159 to 162 °C | CO[C@H]1CCN(C(=O)c2cc(-c3ccccc3)c(=O)n3c2-c2sccc2C3)C1
65 | 146 to 147 °C | CN(C)C1CCc2oc3ccc(NC(=O)c4ccncc4)cc3c2C1 (stereo not given)
66 | 136 to 138 °C | CCOC(=O)Cn1c2c(c3c(Cl)c(Cl)ccc31)CCN(C(=O)OC(C)(C)C)CC2
67 | 226 to 230 °C | CCC(C)C(C)C(=O)Nc1ccc2c(C)cn3c(=O)c(C(=O)NCCN4CCN(C(c5ccccc5)c5ccccc5)CC4)cnc3c2c1 (stereo not given)
68 | 108 to 110 °C | O=C(CS(=O)c1ccccc1)Nc1c([N+](=O)[O-])cnn1-c1c(Cl)cc(C(F)(F)F)cc1Cl (stereo not given)
69 | 207 to 210 °C | CN(Cc1ccc(NC(=O)C2=Cc3cc(-c4ccc(OCc5ccc(Cl)s5)cc4)ccc3S(=O)(=O)CC2)cc1)C1CCOCC1
70 | 200 to 202 °C | CS(=O)(=O)Nc1cc([C@@H](O)CNC2CCN(c3ccc(S(=O)(=O)N4CC(=O)NC4=O)cc3)CC2)ccc1O
71 | 83 to 84 °C | CCOC(=O)C1CCc2cc(C(=O)c3ccccc3)c(O)cc21 (stereo not given)
72 | 249 to 250 °C | COc1cc2ncnc(NC3=CC(=O)C(N4CCOCC4)=CC3=O)c2cc1OC
73 | 240 to 242 °C | Cc1[nH]c2ccc([N+](=O)[O-])cc2c1Cn1ccnc1
74 | > 280 °C | O=[N+]([O-])c1ccc(-c2cc3c(Cl)ncnc3[nH]2)cc1
75 | 75 to 80 °C | O=c1oc(-c2ccccc2)cc(O)c1C(CC1CC1)SC1CCCC1 (stereo not given)
76 | 122 to 124 °C | Cc1cccc(CC(=O)Nc2cc(Cl)c(Cl)cc2[N+](=O)[O-])c1
77 | 153 to 154 °C | CN(C)C=Cc1ncc([N+](=O)[O-])n1CCOC(=O)c1ccccc1
78 | 108 °C | COc1ccc(CNc2ccc(C#N)cc2)cc1F

Row | melting point | SMILES
79 | 92 °C | COc1cc2c(c(Cl)c1Cl)C(=O)C(CCCCCl)C2 (stereo not given)
80 | 158 to 159 °C | CC(C)C1Sc2c(Cl)cccc2NC1=O (stereo not given)
81 | 163 to 164 °C | O=C(Nc1ccc(F)cc1)[C@H]1CCCN(C(=O)c2ccc(F)cc2)C1
82 | 100 to 104 °C | CCCOc1c(OC)cc([N+](=O)[O-])c2ncccc12
83 | 152 to 155 °C | O=C1C2=C(CCCC2)C(=O)N1c1cc([N+](=O)[O-])c(Cl)cc1F
84 | 87 to 91 °C | CCOC(=O)C(C)(C(C)=O)c1ccc([N+](=O)[O-])c(NC)c1C#N (stereo not given)
85 | 235 to 236 °C | O=c1[nH]c(-c2cc(C(F)(F)F)cc(C(F)(F)F)c2)nn1-c1cc(Cl)ccc1O
86 | 116 to 119 °C | CCc1nc2c(cnn2CC)c(NC2CCOCC2)c1CNC(=O)c1cccc(C(=O)NCc2ccc(Cl)c(-c3cccc(CN4CCCNCC4)c3)c2)c1
87 | > 250 °C | N#Cc1cccc(C2=Nc3cc(O)c(-c4cc(F)ccc4F)cc3NC(=O)C2)c1
88 | 127 to 128 °C | CN1C(=O)C2(COc3cc4c(cc32)OCCO4)c2c(C(=O)NC3CC3)cccc21 (stereo not given)
89 | 111 to 113 °C | COc1cccc(OS(=O)(=O)c2ccc(N3CCN(C)C3=O)cc2)c1
90 | 199 °C | COC(=O)c1c(C(C)C)c(S(=O)(=O)c2ccc(O)cc2)c2ccccn12
91 | 111 to 113 °C | CCCCCCCCOC(=O)c1cc(=O)c2c3c(ccc2o1)-c1ccc(Cl)cc1C(C)(C)O3
92 | 255 to 260 °C | CC(=O)c1cc([N+](=O)[O-])c(N)cc1C#N
93 | 156 °C | CC(=O)OCC1OC(Oc2ncn(Cc3ccc([N+](=O)[O-])cc3)c2C(N)=O)C(OC(C)=O)C1OC(C)=O (stereo not given)
94 | 75 to 77 °C | CCOCn1c(-c2ccc(Cl)cc2)c(C#N)c(Sc2ccc(Cl)c(Cl)c2)c1C(F)(F)F
95 | 257 to 258 °C | CC(C)(C)C(NC(=O)c1ccc(Cl)cc1)Nc1c(Nc2cccnc2)c(=O)c1=O (stereo not given)
96 | 182 to 184 °C | CNc1ccc2[nH]c3cc(-c4ccccc4Cl)c4c(c3c2c1)C(=O)NC4=O
97 | 202 to 204 °C | NC(=O)c1nnn(Cc2ccc(Sc3ccc(Cl)cc3)c(Cl)c2)c1N
98 | 305 to 310 °C | Cc1c(Cl)c(=O)[nH][nH]c1=O
99 | 231 to 236 °C | CCNC1CN(c2cc3c(cc2F)c(=O)c2c(=O)[nH]sc2n3C2CC2)C1
100 | 138 to 141 °C | Nc1cc(=O)n(CC2CCCCC2)c(=O)n1CC1CCCCC1
